# According to patent US8563542B2 (Cyclacel Limited, priority 2007, dated 2013):
# Molecular target: T1, AA (Homo sapiens, UniProt O14965)
# T1 sequence (O14965 1-403): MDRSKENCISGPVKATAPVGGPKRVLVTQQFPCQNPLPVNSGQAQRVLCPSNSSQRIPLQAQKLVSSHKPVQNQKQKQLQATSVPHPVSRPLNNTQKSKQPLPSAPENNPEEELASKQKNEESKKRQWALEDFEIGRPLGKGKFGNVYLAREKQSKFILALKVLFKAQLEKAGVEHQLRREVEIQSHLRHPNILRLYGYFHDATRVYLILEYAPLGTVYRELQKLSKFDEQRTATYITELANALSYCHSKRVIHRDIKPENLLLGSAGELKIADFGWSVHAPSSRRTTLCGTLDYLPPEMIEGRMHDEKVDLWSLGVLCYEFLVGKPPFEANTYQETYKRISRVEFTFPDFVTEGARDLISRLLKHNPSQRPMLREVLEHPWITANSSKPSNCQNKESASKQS
# Experiment: AA IC50 (Table 1; no method given)
# Format: biochemical
# Conditions: Table 1; read-out: AA IC50
row,IC50 [nM],Structure (SMILES)
1,1000 to 10000,"COc1cc(C(=O)O)ccc1Nc1ncc2c(n1)N(C1CCCCC1)CCC(=O)N2 [compound 9, 4-(9-Cyclohexyl-6-oxo-6,7,8,9-tetrahydro-5H-pyrimido[4,5-b][1,4]diazepin-2-ylamino)-3-methoxy-benzoic acid]"

# Same assay, conditions: Table 2, AurA IC50; class symbols; read-out: AurA IC50
row,Structure (SMILES),IC50 [nM]
1,"COc1cc(C(=O)NC2CCN(C)CC2)ccc1Nc1ncc2c(n1)N(Cc1ccc(OC)c(OC)c1)CC(C)C(=O)N2C (stereo not shown) [compound 44, 4-[9-(3,4-Dimethoxy-benzyl)-5,7-dimethyl-6-oxo-6,7,8,9-tetrahydro-5H-pyrimido[4,5-b][1,4]diazepin-2-ylamino]-3-methoxy-N-(1-methyl-piperidin-4-yl)-benzamide]",< 10000
2,"COc1ccc(CN2CC(C)C(=O)N(C)c3cnc(Nc4ccc(C(=O)O)cc4)nc32)cc1OC (stereo not shown) [compound 45, 4-[9-(3,4-Dimethoxy-benzyl)-5,7-dimethyl-6-oxo-6,7,8,9-tetrahydro-5H-pyrimido[4,5-b][1,4]diazepin-2-ylamino]-benzoic acid]",< 10000
3,"CN1CCC(NC(=O)c2ccc(Nc3ncc4c(n3)N(C3CCCC3)CCC(=O)N4C)cc2)CC1 [compound 64, 4-(9-Cyclopentyl-5-methyl-6-oxo-6,7,8,9-tetrahydro-5H-pyrimido[4,5-b][1,4]diazepin-2-ylamino)-N-(1-methyl-piperidin-4-yl)-benzamide]",< 100
4,"Cc1cc(Nc2ncc3c(n2)N(C2CCCC2)CCC(=O)N3C)ccc1Cl [compound 72, 2-(4-Chloro-3-methyl-phenylamino)-9-cyclopentyl-5-methyl-5,7,8,9-tetrahydro-pyrimido[4,5-b][1,4]diazepin-6-one]",< 1000
5,"CN1CCN(S(=O)(=O)c2ccc(Nc3ncc4c(n3)N(C3CCCC3)CCC(=O)N4C)cc2)CC1 [compound 105, 9-Cyclopentyl-5-methyl-2-[4-(4-methyl-piperazine-1-sulfonyl)-phenylamino]-5,7,8,9-tetrahydro-pyrimido[4,5-b][1,4]diazepin-6-one]",< 1000
6,"CN1C(=O)C2(CCCC2)CN(C2CCCC2)c2nc(Nc3ccc4c(c3)CS(=O)(=O)C4)ncc21 [compound 118, (9-Cyclopentyl-2-(2,2-dioxo-2,3-dihydro-1H-2lambda*6*-benzo[c]thiophen-5-ylamino)5-methyl-6-oxo-6,7,8,9-tetrahydro-5H-spiro[pyrimido[4,5-b][1,4]diazepin-3,1′-cyclopentane]]",< 1000
7,"CCN1C(=O)CCNc2nc(Nc3ccc4c(c3)CS(=O)(=O)C4)ncc21 [compound 126, 2-(2,2-Dioxo-2,3-dihydro-1H-2lambda*6*- benzo[c]thiophen-5-ylamino)-5-ethyl-5,7,8,9-tetrahydro-pyrimido[4,5-b][1,4]diazepin-6-one]",< 10000
8,"CC(Cc1c[nH]c2ccccc12)Nc1ncc2c(n1)N(C1CCCC1)CCC(=O)N2C (stereo not shown) [compound 175, 9-Cyclopentyl-2-[2-(1H-indo1-3-yl)-1-methyl-ethylamino]-5-methyl-5,7,8,9-tetrahydro-pyrimido[4,5-b][1,4]diazepin-6-one]",< 10000
9,"COc1ccc(N2CCN(c3ncc4c(n3)N(C3CCCC3)CCC(=O)N4C)CC2)cc1 [compound 213, 9-Cyclopentyl-2-[4-(4-methoxy-phenyl)-piperazin-1-yl]-5-methyl-5,7,8,9-tetrahydro-pyrimido[4,5-b][1,4]diazepin-6-one]",< 10000
10,"CC(=O)Nc1ccc(Nc2ncc3c(n2)N(C2CCCC2)CCC(=O)N3C)cc1C(F)(F)F [compound 286, N-[4-(9-Cyclopentyl-5-methyl-6-oxo-6,7,8,9-tetrahydro-5H-pyrimido[4,5-b][1,4]diazepin-2-ylamino)-2-trifluoromethyl-phenyl]-acetamide]",< 1000
11,Cc1cc(Nc2ncc3c(n2)N(C2CCCC2)CCC(=O)N3C)ccc1N(S(C)(=O)=O)S(C)(=O)=O [compound 288],< 100

# Further lines, results first:
row,IC50 [nM],Structure (SMILES)
1,< 1000,"CN1C(=O)CCN(C(C)(C)C)c2nc(Nc3ccc(C(=O)O)cc3)ncc21 [compound 43, 4-(9-tert-Butyl-5-methyl-6-oxo-6,7,8,9-tetrahydro-5H-pyrimido[4,5-b][1,4]diazepin-2-ylamino)-benzoic acid]"
2,< 100,"CN1C(=O)CCN(c2ccccc2F)c2nc(Nc3ccc4c(c3)CS(=O)(=O)C4)ncc21 [compound 73, 2-(2,2-Dioxo-2,3-dihydro-1H-2lambda*6*- benzo[c]thiophen-5-ylamino)-9-(2-fluoro-phenyl)-5-methyl-5,7,8,9-tetrahydro-pyrimido[4,5-b][1,4]diazepin-6-one]"
3,< 100,"CN1C(=O)CCN(c2ccccc2)c2nc(Nc3ccc4c(c3)CS(=O)(=O)C4)ncc21 [compound 75, 2-(2,2-Dioxo-2,3-dihydro-1H-2lambda*6*- benzo[c]thiophen-5-ylamino)-5-methyl-9-phenyl-5,7,8,9-tetrahydro-pyrimido[4,5-b][1,4]diazepin-6-one]"
4,< 100,"CCC(CC)N1CCC(=O)N(C)c2cnc(Nc3ccc4c(c3)CS(=O)(=O)C4)nc21 [compound 79, 2-(2,2-Dioxo-2,3-dihydro-1H-2lambda*6*- benzo[c]thiophen-5-ylamino)-9-(1-ethyl-propyl)-5-methyl-5,7,8,9-tetrahydro-pyrimido[4,5-b][1,4]diazepin-6-one]"
5,< 1000,"CC(C)C1CC(=O)N(C)c2cnc(Nc3ccc4c(c3)CS(=O)(=O)C4)nc2N1C1CCCC1 (stereo not shown) [compound 80, 9-Cyclopentyl-2-(2,2-dioxo-2,3-dihydro-1H-2lambda*6*-benzo[c]thiophen-5-ylamino)-8-isopropyl-5-methyl-5,7,8,9-tetrahydro-pyrimido[4,5-b][1,4]diazepin-6-one]"
6,< 1000,"CN1C(=O)CCN(C2CCOCC2)c2nc(Nc3ccc4c(c3)CS(=O)(=O)C4)ncc21 [compound 81, 2-(2,2-Dioxo-2,3-dihydro-1H-2lambda*6*- benzo[c]thiophen-5-ylamino)-5-methyl-9-(tetrahydro-pyran-4-yl)-5,7,8,9-tetrahydro-pyrimido[4,5-b][1,4]diazepin-6-one]"
7,< 1000,"CN1C(=O)CCN(Cc2ccccc2)c2nc(Nc3ccc4c(c3)CS(=O)(=O)C4)ncc21 [compound 82, 9-Benzyl-2-(2,2-dioxo-2,3-dihydro-1H-2lambda*6*-benzo[c]thiophen-5-ylamino)-5-methyl-5,7,8,9-tetrahydro-pyrimido[4,5-b][1,4]diazepin-6-one]"
8,< 100,"CN1C(=O)CCN(CC2CC2)c2nc(Nc3ccc4c(c3)CS(=O)(=O)C4)ncc21 [compound 114, 9-Cyclopropylmethyl-2-(2,2-dioxo-2,3-dihydro-1H-2lambda*6*-benzo[c]thiophen-5-ylamino)-5-methyl-5,7,8,9-tetrahydro-pyrimido[4,5-b][1,4]diazepin-6-one]"
9,< 1000,"CC(C)CCN1CCC(=O)N(C)c2cnc(Nc3ccc4c(c3)CS(=O)(=O)C4)nc21 [compound 116, 2-(2,2-Dioxo-2,3-dihydro-1H-2lambda*6*- benzo[c]thiophen-5-ylamino)-5-methyl-9-(3-methyl-butyl)-5,7,8,9-tetrahydro-pyrimido[4,5-b][1,4]diazepin-6-one]"
10,< 100,"CCC(CC)N1CCC(=O)N(CC)c2cnc(Nc3ccc4c(c3)CS(=O)(=O)C4)nc21 [compound 120, 2-(2,2-Dioxo-2,3-dihydro-1H-2lambda*6*- benzo[c]thiophen-5-ylamino)-5-ethyl-9-(1-ethyl-propyl)-5,7,8,9-tetrahydro-pyrimido[4,5-b][1,4]diazepin-6-one]"
11,< 1000,"CN1C(=O)CCN(C(C)(C)C)c2nc(Nc3ccc4c(c3)CS(=O)(=O)C4)ncc21 [compound 121, 9-tert-Butyl-2-(2,2-dioxo-2,3-dihydro-1H-2lambda*6*-benzo[c]thiophen-5-ylamino)-5-methyl-5,7,8,9-tetrahydro-pyrimido[4,5-b][1,4]diazepin-6-one]"
12,< 1000,"CCN1C(=O)CCN(C(C)(C)C)c2nc(Nc3ccc4c(c3)CS(=O)(=O)C4)ncc21 [compound 122, 9-tert-Butyl-2-(2,2-dioxo-2,3-dihydro-1H-2lambda*6*-benzo[c]thiophen-5-ylamino)-5-ethyl-5,7,8,9-tetrahydro-pyrimido[4,5-b][1,4]diazepin-6-one]"
13,< 1000,"COc1ccccc1N1CCC(=O)N(C)c2cnc(Nc3ccc4c(c3)CS(=O)(=O)C4)nc21 [compound 133, 2-(2,2-Dioxo-2,3-dihydro-1H-2lambda*6*- benzo[c]thiophen-5-ylamino)-9-(2-methoxy-phenyl)-5-methyl-5,7,8,9-tetrahydro-pyrimido[4,5-b][1,4]diazepin-6-one]"
14,< 1000,"Cc1ccccc1N1CCC(=O)N(C)c2cnc(Nc3ccc4c(c3)CS(=O)(=O)C4)nc21 [compound 134, 2-(2,2-Dioxo-2,3-dihydro-1H-2lambda*6*- benzo[c]thiophen-5-ylamino)-5-methyl-9-o-tolyl-5,7,8,9-tetrahydro-pyrimido[4,5-b][1,4]diazepin-6-one]"
15,< 1000,"CN1C(=O)CCN(c2ccccc2Cl)c2nc(Nc3ccc4c(c3)CS(=O)(=O)C4)ncc21 [compound 135, 9-(2-Chloro-phenyl)-2-(2,2-dioxo-2,3-dihydro-1H-2lambda*6*-benzo[c]thiophen-5-ylamino)-5-methyl-5,7,8,9-tetrahydro-pyrimido[4,5-b][1,4]diazepin-6-one]"
16,< 1000,"COc1cccc(N2CCC(=O)N(C)c3cnc(Nc4ccc5c(c4)CS(=O)(=O)C5)nc32)c1 [compound 136, 2-(2,2-Dioxo-2,3-dihydro-1H-2lambda*6*- benzo[c]thiophen-5-ylamino)-9-(3-methoxy-phenyl)-5-methyl-5,7,8,9-tetrahydro-pyrimido[4,5-b][1,4]diazepin-6-one]"
